Test results taken from ChEMBL document CHEMBL5352434, “Design, synthesis, and biological evaluation of ocotillol derivatives fused with 2-aminothiazole via A-ring as modulators of P-glycoprotein-mediated multidrug resistance” (Eur J Med Chem, 2022).
The source made the active and inactive calls. The rule behind the calls is not given here.

Experiments:
[1] = Cytotoxicity against multi-drug resistance human KBV cells assessed as cell survival rate at 5 uM in presence of 100 nM Paclitaxel incubated for 72 hrs by MTT assay; type: functional; details: read-out: Survival
[2] = Cytotoxicity against multi-drug resistance human KBV cells assessed as cell survival rate at 10 uM incubated for 72 hrs by MTT assay; type: functional; details: read-out: Survival
[3] = Cytotoxicity against multi-drug resistance human KBV cells assessed as cell survival rate at 5 uM incubated for 72 hrs by MTT assay; type: functional; details: read-out: Survival
[4] = Cytotoxicity against multi-drug resistance human KBV cells assessed as cell survival rate at 10 uM in presence of 100 nM Paclitaxel incubated for 72 hrs by MTT assay; type: functional; details: read-out: Survival
[5] = Cytotoxicity against multi-drug resistance human KBV cells assessed as cell survival in presence of Tariquidar incubated for 72 hrs by MTT assay; type: functional, cell-based
[6] = Cytotoxicity against multi-drug resistance human KBV cells assessed as cell survival incubated for 72 hrs by MTT assay; type: functional, cell-based
[7] = Cytotoxicity against multi-drug resistance human KBV cells assessed as cell survival in presence of 10 uM (20S,24R)-Epoxy-3-beta-N-glycyl-[3,2-b]thiazole-dammarane-12-beta,25-diol incubated for 72 hrs by MTT assay; type: functional, cell-based
[8] = Cytotoxicity against multi-drug resistance human KBV cells assessed as cell survival in presence of Verapamil incubated for 72 hrs by MTT assay; type: functional, cell-based
[9] = Cytotoxicity against multi-drug resistance human KBV cells assessed as cell survival in presence of 5 uM (20S,24R)-Epoxy-3-beta-N-glycyl-[3,2-b]thiazole-dammarane-12-beta,25-diol incubated for 72 hrs by MTT assay; type: functional, cell-based
[10] = Toxicity in BALB/c nude mouse xenografted with human MDR KBV cells assessed as change in body weight administered at 30 mg/kg every 3 days for 18 days; type: organism-based; details: in vivo, 432 h, time 18 day
KBV = experiment: Antitumor activity against human MDR KBV cells xenografted in BALB/c nude mouse assessed as change in tumor volume at 30 mg/kg every 3 days for 18 days; type: functional, organism-based; details: time 18.0 day

Row | SMILES | viability at 5 µM [1] | viability at 10 µM [2] | viability at 5 µM [3] | viability at 10 µM [4] | IC50 [5] | IC50 [6] | IC50 [7] | IC50 [8] | IC50 [9] | Activity [10] | Activity (KBV)
1 | C[C@H](N)C(=O)Nc1nc2c(s1)C[C@]1(C)[C@H]3C[C@@H](O)[C@@H]4[C@@H]([C@]5(C)CC[C@H](C(C)(C)O)O5)CC[C@@]4(C)[C@]3(C)CC[C@H]1C2(C)C | 67.3% | 103% | 91.4% | 41% |  |  |  |  |  |  | 
2 | CC(C)(O)[C@H]1CC[C@@](C)([C@H]2CC[C@]3(C)[C@@H]2[C@H](O)C[C@@H]2[C@@]4(C)Cc5sc(NC(=O)CCCCCN)nc5C(C)(C)[C@@H]4CC[C@]23C)O1 | 21.6% | 30.3% | 35.3% | 12.5% |  |  |  |  |  |  | 
3 | CC(C)(O)[C@H]1CC[C@@](C)([C@H]2CC[C@]3(C)[C@H]2[C@H](O)C[C@@H]2[C@@]4(C)Cc5sc(NC(=O)[C@H](N)Cc6c[nH]c7ccccc67)nc5C(C)(C)[C@@H]4CC[C@]23C)O1 | 69.5% | 93.9% | 91.9% | 55.6% |  |  |  |  |  |  | 
4 | CC(C)(O)[C@H]1CC[C@@](C)([C@H]2CC[C@]3(C)[C@@H]2[C@H](O)C[C@@H]2[C@@]4(C)CC[C@H](O)C(C)(C)[C@@H]4CC[C@]23C)O1 |  |  |  | 86.6% |  |  |  |  |  |  | 
5 | CC(C)(O)[C@@H]1CC[C@@](C)([C@H]2CC[C@]3(C)[C@@H]2[C@H](O)C[C@@H]2[C@@]4(C)Cc5sc(NC(=O)CCCCCN)nc5C(C)(C)[C@@H]4CC[C@]23C)O1 | 72.2% | 72.2% | 93.5% | 67.2% |  |  |  |  |  |  | 
6 | O=C1c2c(O)ccc(O)c2C(=O)c2c(NCCNCCO)ccc(NCCNCCO)c21 [MITOXANTRONE] |  |  |  |  | 0.09 µM | 0.299 µM | 0.0619 µM | 0.0975 µM | 0.165 µM |  | 
7 | CC(C)(O)[C@@H]1CC[C@@](C)([C@H]2CC[C@]3(C)[C@@H]2[C@H](O)C[C@@H]2[C@@]4(C)Cc5sc(NC(=O)[C@H](N)Cc6ccccc6)nc5C(C)(C)[C@@H]4CC[C@]23C)O1 | 101% | 96% | 103% | 50.2% |  |  |  |  |  |  | 
8 | CC(C)(O)[C@@H]1CC[C@@](C)([C@H]2CC[C@]3(C)[C@@H]2[C@H](O)C[C@@H]2[C@@]4(C)Cc5sc(N)nc5C(C)(C)[C@@H]4CC[C@]23C)O1 | 68.7% | 80.6% | 112% | 48.6% |  |  |  |  |  |  | 
9 | CC(C)(O)[C@@H]1CC[C@@](C)([C@H]2CC[C@]3(C)[C@@H]2[C@H](O)C[C@@H]2[C@@]4(C)Cc5sc(NC(=O)CN)nc5C(C)(C)[C@@H]4CC[C@]23C)O1 | 59.4% | 65.4% | 94.6% | 30.2% |  |  |  |  |  |  | 
10 | CC(C)(O)[C@@H]1CC[C@@](C)([C@H]2CC[C@]3(C)[C@@H]2[C@H](O)C[C@@H]2[C@@]4(C)Cc5sc(NC(=O)[C@H](N)Cc6c[nH]c7ccccc67)nc5C(C)(C)[C@@H]4CC[C@]23C)O1 | 94.4% | 95.7% | 92.8% | 76.3% |  |  |  |  |  |  | 
11 | CC(C)(O)[C@H]1CC[C@@](C)([C@H]2CC[C@]3(C)[C@@H]2[C@H](O)C[C@@H]2[C@@]4(C)Cc5sc(NC(=O)CCCCCCCN)nc5C(C)(C)[C@@H]4CC[C@]23C)O1 | 23.6% | 23.5% | 38.3% | 15% |  |  |  |  |  |  | 
12 | CC(C)(O)[C@@H]1CC[C@@](C)([C@H]2CC[C@]3(C)[C@@H]2[C@H](O)C[C@@H]2[C@@]4(C)Cc5sc(NC(=O)CCCN)nc5C(C)(C)[C@@H]4CC[C@]23C)O1 | 90% | 67.2% | 106% | 57% |  |  |  |  |  |  | 
13 | CC(C)(O)[C@H]1CC[C@@](C)([C@H]2CC[C@]3(C)[C@@H]2[C@H](O)C[C@@H]2[C@@]4(C)Cc5sc(NC(=O)[C@H]6CCCN6)nc5C(C)(C)[C@@H]4CC[C@]23C)O1 | 39.5% | 59.5% | 84.1% | 22.9% |  |  |  |  |  |  | 
14 | CC(C)C[C@H](N)C(=O)Nc1nc2c(s1)C[C@]1(C)[C@H]3C[C@@H](O)[C@@H]4[C@@H]([C@]5(C)CC[C@@H](C(C)(C)O)O5)CC[C@@]4(C)[C@]3(C)CC[C@H]1C2(C)C | 71.8% | 98.1% | 89.3% | 50.9% |  |  |  |  |  |  | 
15 | CC(C)(O)[C@@H]1CC[C@@](C)([C@H]2CC[C@]3(C)[C@@H]2[C@H](O)C[C@@H]2[C@@]4(C)CC[C@H](O)C(C)(C)[C@@H]4CC[C@]23C)O1 |  |  |  | 86.5% |  |  |  |  |  |  | 
16 | CC(C)(O)[C@@H]1CC[C@@](C)([C@H]2CC[C@]3(C)[C@@H]2[C@H](O)C[C@@H]2[C@@]4(C)Cc5sc(NC(=O)CCCCCCCCCCN)nc5C(C)(C)[C@@H]4CC[C@]23C)O1 | 18.1% | 17.5% | 18.4% | 16.4% |  |  |  |  |  |  | 
17 | CC(C)(O)[C@H]1CC[C@@](C)([C@H]2CC[C@]3(C)[C@@H]2[C@H](O)C[C@@H]2[C@@]4(C)Cc5sc(N)nc5C(C)(C)[C@@H]4CC[C@]23C)O1 | 33.7% | 73.9% | 104% | 18.2% |  |  |  |  |  |  | 
18 | CC(C)(O)[C@@H]1CC[C@@](C)([C@H]2CC[C@]3(C)[C@@H]2[C@H](O)C[C@@H]2[C@@]4(C)Cc5sc(NC(=O)CCCCCCCN)nc5C(C)(C)[C@@H]4CC[C@]23C)O1 | 29% | 16.5% | 44.7% | 17.3% |  |  |  |  |  |  | 
19 | CC(C)[C@H](N)C(=O)Nc1nc2c(s1)C[C@]1(C)[C@H]3C[C@@H](O)[C@H]4[C@@H]([C@]5(C)CC[C@@H](C(C)(C)O)O5)CC[C@@]4(C)[C@]3(C)CC[C@@]1(O)C2(C)C | 98.6% | 100% | 92.5% | 90.7% |  |  |  |  |  |  | 
20 | CC(=O)O[C@H]1C(=O)[C@@]2(C)[C@H]([C@H](OC(=O)c3ccccc3)[C@]3(O)C[C@H](OC(=O)[C@H](O)[C@@H](NC(=O)c4ccccc4)c4ccccc4)C(C)=C1C3(C)C)[C@]1(OC(C)=O)CO[C@@H]1C[C@@H]2O [PACLITAXEL] |  |  |  | 99.3% | 0.00216 µM | 0.788 µM | 0.00217 µM | 0.00966 µM | 0.0585 µM | Non-Toxic | inactive
21 | CC(C)[C@H](N)C(=O)Nc1nc2c(s1)C[C@]1(C)[C@H]3C[C@@H](O)[C@H]4[C@@H]([C@]5(C)CC[C@H](C(C)(C)O)O5)CC[C@@]4(C)[C@]3(C)CC[C@H]1C2(C)C | 91.6% | 92.7% | 95.2% | 54.2% |  |  |  |  |  |  | 
22 | CC(C)(O)[C@H]1CC[C@@](C)([C@H]2CC[C@]3(C)[C@@H]2[C@H](O)C[C@@H]2[C@@]4(C)Cc5sc(NC(=O)[C@H](N)Cc6ccccc6)nc5C(C)(C)[C@@H]4CC[C@]23C)O1 | 54.1% | 101% | 100% | 39.1% |  |  |  |  |  |  | 
23 | C[C@H](N)C(=O)Nc1nc2c(s1)C[C@]1(C)[C@H]3C[C@@H](O)[C@@H]4[C@@H]([C@]5(C)CC[C@@H](C(C)(C)O)O5)CC[C@@]4(C)[C@]3(C)CC[C@H]1C2(C)C | 77.4% | 97.4% | 95.7% | 46% |  |  |  |  |  |  | 
24 | CC(C)(O)[C@@H]1CC[C@@](C)([C@H]2CC[C@]3(C)[C@@H]2[C@H](O)C[C@@H]2[C@@]4(C)Cc5sc(NC(=O)[C@H]6CCCN6)nc5C(C)(C)[C@@H]4CC[C@]23C)O1 | 69.8% | 93.3% | 94.6% | 48.1% |  |  |  |  |  |  | 
25 | CC(C)C[C@H](N)C(=O)Nc1nc2c(s1)C[C@]1(C)[C@H]3C[C@@H](O)[C@H]4[C@@H]([C@]5(C)CC[C@H](C(C)(C)O)O5)CC[C@@]4(C)[C@]3(C)CC[C@H]1C2(C)C | 90.4% | 89% | 92.8% | 32.6% |  |  |  |  |  |  | 
26 | CC(C)(O)[C@H]1CC[C@@](C)([C@H]2CC[C@]3(C)[C@@H]2[C@H](O)C[C@@H]2[C@@]4(C)Cc5sc(NC(=O)CCCN)nc5C(C)(C)[C@@H]4CC[C@]23C)O1 | 19.8% | 14.9% | 34.7% | 12.6% |  |  |  |  |  |  | 
27 | CC[C@]1(O)C[C@H]2CN(CCc3c([nH]c4ccccc34)[C@@](C(=O)OC)(c3cc4c(cc3OC)N(C=O)[C@H]3[C@@](O)(C(=O)OC)[C@H](OC(C)=O)[C@]5(CC)C=CCN6CC[C@]43[C@@H]65)C2)C1 [VINCRISTINE] |  |  |  |  | 0.0015 µM | 0.559 µM | 0.00118 µM | 0.00163 µM | 0.0137 µM |  | 
28 | CC(C)(O)[C@H]1CC[C@@](C)([C@H]2CC[C@]3(C)[C@@H]2[C@H](O)C[C@@H]2[C@@]4(C)Cc5sc(NC(=O)CCCCCCCCCCN)nc5C(C)(C)[C@@H]4CC[C@]23C)O1 | 17.5% | 12.4% | 43.6% | 11.4% |  |  |  |  |  |  | 
